{
  "source": "patent US11099176B2",
  "about": "(priority 2015, dated 2021)",
  "type_in_all_cases": "binding",
  "key": {"[1]": {"target": "Marinobacter sp. msLacBP6 variant G170C, SEQ ID NO: 36, Badan conjugate", "experiment": "Fluorescence titration of conjugate", "conditions": "read-out: trueKd (lactate); monochromatic, 520 nm"}, "[2]": {"target": "Marinobacter sp. msLacBP6 variant Y187C (187C), SEQ ID NO: 38, Acrylodan conjugate", "experiment": "Fluorescence titration of conjugate"}, "[3]": {"target": "T1, Marinobacter adhaerens maLacBP8 variant F189C, SEQ ID NO: 43, Acrylodan conjugate (Marinobacter adhaerens, UniProt E4PNW2, C105A/C90A/F252C)", "T1 construct": "Acrylodan on Cys189", "T1 sequence (E4PNW2 entry or part of it C90A/C105A/F252C)": "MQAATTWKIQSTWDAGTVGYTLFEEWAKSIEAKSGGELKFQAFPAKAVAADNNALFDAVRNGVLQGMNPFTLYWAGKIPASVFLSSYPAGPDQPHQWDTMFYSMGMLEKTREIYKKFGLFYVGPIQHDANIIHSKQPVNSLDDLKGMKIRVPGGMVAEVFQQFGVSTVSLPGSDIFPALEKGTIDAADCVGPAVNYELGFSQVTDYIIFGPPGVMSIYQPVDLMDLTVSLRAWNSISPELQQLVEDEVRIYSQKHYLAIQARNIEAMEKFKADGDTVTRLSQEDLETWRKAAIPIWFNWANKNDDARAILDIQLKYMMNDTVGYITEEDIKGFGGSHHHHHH", "experiment": "Fluorescence titration of conjugate"}, "[4]": {"target": "T2, Marinobacter adhaerens maLacBP8 variant F189C, SEQ ID NO: 43, Badan conjugate (Marinobacter adhaerens, UniProt E4PNW2, C105A/C90A/F252C)", "T2 construct": "Badan on Cys189", "T2 sequence (E4PNW2 entry or part of it C90A/C105A/F252C)": "as above", "experiment": "Fluorescence titration of conjugate"}, "[5]": {"system": "Anaeromyxobacter dehalogenans adLacBP9 variant F191C, SEQ ID NO: 44, Acrylodan conjugate", "experiment": "Fluorescence titration of conjugate", "parameters": "key: nb: no binding", "description": "(§1) 12-, 24-, or 48-point logarithmic titration series were prepared on a Tecan Freedom liquid-handling robot, using an in-house program, ‘TitrationPlate’, that compiles an abstract description of a multi-component titration series into machine instructions for operating the robot. Temperature-dependent fluorescence emission intensities of 20 μL aliquots, each containing 10 μM protein, were measured in 384-well microtiter plates in a LightCycler 480 II (Roche) using excitation and emission wavelengths available for this instrument that most closely matched the optical characteristics of the fluorescent conjugate. Temperatures were advanced in 1K steps. At each temperature, data was collected at 1-second intervals for 60 seconds at which point the signal had relaxed to a steady value associated with the new temperature. […] The in-house program ‘TitrationMeltPlate’ was used to convert these observations into time-independent datasets that record fluorescence as a function of temperature for each well and associate wells with their concentration of titrant and additive. Management tools were developed to maintain a database of titrations and their analyses.\n(§2) Ligand- and wavelength-dependent emission intensities were recorded on a Nanodrop3300 (Thermo Scientific) at room temperature. Using the LED closest to the optimal excitation wavelength of the fluorophore (UV, 365 nm; blue, 470 nm; ‘white’, 460-550 nm).\n(§3) Monochromatic emission intensities Iλ (these intensities correspond to a bandpass intensity, recorded either with a physical filter in the case of the Roche LightCycler, or by integrating in the interval λ−δ, λ+δ in the case of an emission spectrum), were fit to Iλ=^apoβλ(1−ytrue)+^satβλytrue 1 where ^apoβλ and ^satβλ are the fluorescence baselines associated with the ligand-free and ligand-bound states of the protein, respectively, and ytrue the fractional saturation of the protein (Layton and Hellinga, 2010, Biochemistry, 49, 10831-41). Baseline functions can be constant, linear, or a second-order polynomial."}, "[6]": {"system": "Anaeromyxobacter dehalogenans adLacBP9 variant F191C, SEQ ID NO: 44, Badan conjugate", "experiment": "Fluorescence titration of conjugate", "parameters": "key: nb: no binding", "description": "as §1, §2, §3"}, "[7]": {"target": "T3, Pseudomonas stuztzeri psLacBP11 variant W195C, SEQ ID NO: 45, Badan conjugate (Stutzerimonas nitrititolerans, UniProt A0ABX9V4I2, W224C)", "T3 construct": "Badan on Cys195", "T3 sequence (A0ABX9V4I2 entry or part of it W224C)": "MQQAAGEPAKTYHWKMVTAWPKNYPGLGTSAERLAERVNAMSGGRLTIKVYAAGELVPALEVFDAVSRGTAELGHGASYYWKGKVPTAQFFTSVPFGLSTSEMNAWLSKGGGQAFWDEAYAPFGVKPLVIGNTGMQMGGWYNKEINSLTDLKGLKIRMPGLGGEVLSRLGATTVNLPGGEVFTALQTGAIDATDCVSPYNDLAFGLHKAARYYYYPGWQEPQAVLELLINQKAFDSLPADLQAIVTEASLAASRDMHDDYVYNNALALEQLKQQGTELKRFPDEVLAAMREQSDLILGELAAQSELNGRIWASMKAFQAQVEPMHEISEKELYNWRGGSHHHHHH", "parameters": "key: nb: no binding", "description": "as §1, §2, §3"}, "[8]": {"target": "T4, Rhodobacter sphaeroides rsLacBP12 variant F191C, SEQ ID NO: 46, Acrylodan conjugate (Cereibacter sphaeroides, UniProt Q3IWV8, F228C)", "T4 construct": "Acrylodan on Cys191", "T4 sequence (Q3IWV8 entry or part of it F228C)": "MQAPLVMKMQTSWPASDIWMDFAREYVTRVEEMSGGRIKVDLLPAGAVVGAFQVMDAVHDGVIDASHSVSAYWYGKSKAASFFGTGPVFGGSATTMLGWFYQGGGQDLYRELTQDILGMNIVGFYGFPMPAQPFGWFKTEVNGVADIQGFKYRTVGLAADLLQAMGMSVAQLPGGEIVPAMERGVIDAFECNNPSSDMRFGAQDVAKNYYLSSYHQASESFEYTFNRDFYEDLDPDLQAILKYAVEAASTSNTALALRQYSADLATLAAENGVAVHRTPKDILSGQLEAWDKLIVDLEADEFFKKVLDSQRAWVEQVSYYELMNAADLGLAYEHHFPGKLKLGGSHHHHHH", "parameters": "key: nb: no binding", "description": "as §1, §2, §3"}, "[9]": {"target": "T5, Rhodobacter sphaeroides rsLacBP12 variant F191C, SEQ ID NO: 46, Badan conjugate (Cereibacter sphaeroides, UniProt Q3IWV8, F228C)", "T5 construct": "Badan on Cys191", "T5 sequence (Q3IWV8 entry or part of it F228C)": "as above", "parameters": "key: nb: no binding", "description": "as §1, §2, §3"}, "[10]": {"target": "T6, Thermanaerovibrio acidaminovorans taLacBP14 variant W186C, SEQ ID NO: 48, Acrylodan conjugate (Thermanaerovibrio acidaminovorans, UniProt D1B6P5, C271A/C333A/W212C)", "T6 construct": "Acrylodan on Cys186", "T6 sequence (D1B6P5 entry or part of it W212C/C271A/C333A)": "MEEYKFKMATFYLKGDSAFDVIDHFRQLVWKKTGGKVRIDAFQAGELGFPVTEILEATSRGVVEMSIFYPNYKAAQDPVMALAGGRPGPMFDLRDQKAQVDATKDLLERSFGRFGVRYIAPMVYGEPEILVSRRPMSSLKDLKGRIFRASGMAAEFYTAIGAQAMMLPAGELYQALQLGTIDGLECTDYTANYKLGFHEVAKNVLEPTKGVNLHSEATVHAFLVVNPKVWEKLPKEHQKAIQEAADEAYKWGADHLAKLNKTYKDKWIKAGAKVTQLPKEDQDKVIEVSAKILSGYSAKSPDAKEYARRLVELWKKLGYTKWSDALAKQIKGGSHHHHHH", "parameters": "key: nb: no binding", "description": "as §1, §2, §3"}, "[11]": {"target": "T7, Thermanaerovibrio acidaminovorans taLacBP14 variant W186C, SEQ ID NO: 48, Badan conjugate (Thermanaerovibrio acidaminovorans, UniProt D1B6P5, C271A/C333A/W212C)", "T7 construct": "Badan on Cys186", "T7 sequence (D1B6P5 entry or part of it W212C/C271A/C333A)": "as above", "parameters": "key: nb: no binding", "conditions": "λ1 515, λ2 491 nm", "description": "as §1, §2, §3"}, "[12]": {"target": "Marinobacter sp. msLacBP6 variant 187C, F68M, SEQ ID NO: 50, Acrylodan conjugate", "experiment": "Fluorescence titration of conjugate (affinity tuning)", "conditions": "λ1 459, λ2 516 nm"}, "[13]": {"target": "Marinobacter sp. msLacBP6 variant 187C, F68M, SEQ ID NO: 50, Badan conjugate", "experiment": "Fluorescence titration of conjugate (affinity tuning)", "conditions": "λ1 464, λ2 527 nm"}, "[14]": {"target": "Marinobacter sp. msLacBP6 variant 187C, P150S, SEQ ID NO: 55, Badan conjugate", "experiment": "Fluorescence titration of conjugate (affinity tuning)", "conditions": "read-out: trueKd (lactate); monochromatic, 528 nm"}, "[15]": {"target": "Marinobacter sp. msLacBP6 variant 187C, D220E, SEQ ID NO: 56, Acrylodan conjugate", "experiment": "Fluorescence titration of conjugate (affinity tuning)", "conditions": "λ1 483, λ2 510 nm"}, "[16]": {"target": "Marinobacter sp. msLacBP6 variant 187C, D220E, SEQ ID NO: 56, Badan conjugate", "experiment": "Fluorescence titration of conjugate (affinity tuning)", "conditions": "read-out: trueKd (lactate); monochromatic, 532 nm"}},
  "note": "pKd: −log10 of the molar value. Read-outs that look alike come from different tables or passages of the source.",
  "data": [
    {"smiles": "C[C@H](O)C(=O)O", "note": "[lactate]", "values": [
      {"measurement": "pKd", "setting": "[1]", "value": 4.70},
      {"measurement": "pKd", "setting": "[2]; read-out: appKd (lactate), approximate, text statement for Acrylodan and Badan conjugates", "value": "~3.40"},
      {"measurement": "pKd", "setting": "[2]; read-out: appKd (lactate), λ1 452, λ2 482 nm as printed in Table 5", "value": 3.40},
      {"measurement": "pKd", "setting": "[2]; read-out: appKd (lactate), λ1 452, λ2 582 nm (FIG. 5A, Table 7)", "value": 3.40},
      {"measurement": "pKd", "setting": "[2]; read-out: appKd (lactate), λ1 483, λ2 451 nm (Table 6)", "value": 3.64},
      {"measurement": "pKd", "setting": "[2]; read-out: trueKd (lactate), λ1 452, λ2 482 nm as printed in Table 5", "value": 3.52},
      {"measurement": "pKd", "setting": "[2]; read-out: trueKd (lactate), λ1 452, λ2 582 nm (FIG. 5A, Table 7)", "value": 3.52},
      {"measurement": "pKd", "setting": "[2]; read-out: trueKd (lactate), λ1 483, λ2 451 nm (Table 6)", "value": 3.46},
      {"measurement": "pKd", "setting": "[3]", "value": 2.82},
      {"measurement": "pKd", "setting": "[4]", "value": 3.22},
      {"measurement": "appKd (lactate)", "setting": "[5]", "value": "nb"},
      {"measurement": "trueKd (lactate)", "setting": "[5]", "value": "nb"},
      {"measurement": "appKd (lactate)", "setting": "[6]", "value": "nb"},
      {"measurement": "trueKd (lactate)", "setting": "[6]", "value": "nb"},
      {"measurement": "appKd (lactate)", "setting": "[7]", "value": "nb"},
      {"measurement": "trueKd (lactate)", "setting": "[7]", "value": "nb"},
      {"measurement": "appKd (lactate)", "setting": "[8]", "value": "nb"},
      {"measurement": "trueKd (lactate)", "setting": "[8]", "value": "nb"},
      {"measurement": "appKd (lactate)", "setting": "[9]", "value": "nb"},
      {"measurement": "trueKd (lactate)", "setting": "[9]", "value": "nb"},
      {"measurement": "appKd (lactate)", "setting": "[10]", "value": "nb"},
      {"measurement": "trueKd (lactate)", "setting": "[10]", "value": "nb"},
      {"measurement": "appKd (lactate)", "setting": "[11]", "value": "nb"},
      {"measurement": "trueKd (lactate)", "setting": "[11]", "value": "nb"},
      {"measurement": "pKd", "setting": "[12]; read-out: appKd (lactate)", "value": 3.15},
      {"measurement": "pKd", "setting": "[12]; read-out: trueKd (lactate)", "value": 3.30},
      {"measurement": "pKd", "setting": "[13]; read-out: appKd (lactate)", "value": 3.30},
      {"measurement": "pKd", "setting": "[13]; read-out: trueKd (lactate)", "value": 3.22},
      {"measurement": "pKd", "setting": "[14]", "value": 1.84},
      {"measurement": "pKd", "setting": "[15]; read-out: appKd (lactate)", "value": 2.29},
      {"measurement": "pKd", "setting": "[15]; read-out: trueKd (lactate)", "value": 2.40},
      {"measurement": "pKd", "setting": "[16]", "value": 2.51}
    ]}
  ]
}
